Assay results published in patent publication US20260125379A1, “PRODRUG OF JAK KINASE INHIBITOR” (E-nitiate Biopharmaceuticals (Hangzhou) Co., Ltd, priority 2022, published 2026).
Like-named read-outs stand apart in the source and are kept apart here.

Legend:
[1] = Plasma pharmacokinetics in rats after single gavage; format: in vivo; settings: SD rats; for presence of the prodrug in plasma (in words): after gavage of the prodrug itself; for Cmax (ng · mL^−1) / Cmax / Tmax / AUC0-t: plasma
Experimental: (§1) Compounds A1, A2, A3, B3, B6 and B3 were administered once to SD rats by gavage. The concentrations of medicaments and metabolites thereof in plasma were collected and measured at different time points, and the pharmacokinetic parameters of each compound were calculated to study the pharmacokinetic characteristics of the compounds in plasma of SD rats. Fecal samples at 8 and 24 hours were collected simultaneously, and the concentrations of prodrugs and degraded products were detected to investigate the excretion recovery rate.
(§2) Rats were grouped in groups of 3, and all SD rats were fasted overnight (12 hours or more) the day before the experiment. On the day of the experiment, after weighing the body weight, the rats were administrated once with compound A1, A2, A3, B3, B6, and B3 by gavage respectively. SD rats were able to resume eating 4 hours after administration and were able to drink freely during the experiment. 0.20 mL of blood was collected from the jugular vein before administration and at 0.5, 1, 2, 4, 8, 12, and 24 hours after administration, respectively, and was placed in EDTA-K2 anticoagulation tube. All whole blood samples were centrifuged at 1500 g to 1600 g for 10 minutes within half an hour after collection to separate plasma, which was stored in a refrigerator at a temperature of between −90° C. and −60° C. for sample analysis. All the feces from the metabolic cage chassis were collected at 24 h after administration and weighed accurately. The required volume of homogenate liquid (aqueous solution containing 20% methanol) was added at a weight/volume ratio of 1:10, and the resultant was homogenized and analyzed.

JAK2 = JAK2 (Homo sapiens, UniProt O60674); assay: JAK2 kinase inhibition assay (ULight-JAK-1 substrate, Eu-labeled anti-phosphotyrosine antibody); format: biochemical; settings: JAK2 0.125 nM, substrate 50 nM, ATP 10 μM, 1 hour at room temperature
Chain of JAK2 (O60674 whole entry, species assumed): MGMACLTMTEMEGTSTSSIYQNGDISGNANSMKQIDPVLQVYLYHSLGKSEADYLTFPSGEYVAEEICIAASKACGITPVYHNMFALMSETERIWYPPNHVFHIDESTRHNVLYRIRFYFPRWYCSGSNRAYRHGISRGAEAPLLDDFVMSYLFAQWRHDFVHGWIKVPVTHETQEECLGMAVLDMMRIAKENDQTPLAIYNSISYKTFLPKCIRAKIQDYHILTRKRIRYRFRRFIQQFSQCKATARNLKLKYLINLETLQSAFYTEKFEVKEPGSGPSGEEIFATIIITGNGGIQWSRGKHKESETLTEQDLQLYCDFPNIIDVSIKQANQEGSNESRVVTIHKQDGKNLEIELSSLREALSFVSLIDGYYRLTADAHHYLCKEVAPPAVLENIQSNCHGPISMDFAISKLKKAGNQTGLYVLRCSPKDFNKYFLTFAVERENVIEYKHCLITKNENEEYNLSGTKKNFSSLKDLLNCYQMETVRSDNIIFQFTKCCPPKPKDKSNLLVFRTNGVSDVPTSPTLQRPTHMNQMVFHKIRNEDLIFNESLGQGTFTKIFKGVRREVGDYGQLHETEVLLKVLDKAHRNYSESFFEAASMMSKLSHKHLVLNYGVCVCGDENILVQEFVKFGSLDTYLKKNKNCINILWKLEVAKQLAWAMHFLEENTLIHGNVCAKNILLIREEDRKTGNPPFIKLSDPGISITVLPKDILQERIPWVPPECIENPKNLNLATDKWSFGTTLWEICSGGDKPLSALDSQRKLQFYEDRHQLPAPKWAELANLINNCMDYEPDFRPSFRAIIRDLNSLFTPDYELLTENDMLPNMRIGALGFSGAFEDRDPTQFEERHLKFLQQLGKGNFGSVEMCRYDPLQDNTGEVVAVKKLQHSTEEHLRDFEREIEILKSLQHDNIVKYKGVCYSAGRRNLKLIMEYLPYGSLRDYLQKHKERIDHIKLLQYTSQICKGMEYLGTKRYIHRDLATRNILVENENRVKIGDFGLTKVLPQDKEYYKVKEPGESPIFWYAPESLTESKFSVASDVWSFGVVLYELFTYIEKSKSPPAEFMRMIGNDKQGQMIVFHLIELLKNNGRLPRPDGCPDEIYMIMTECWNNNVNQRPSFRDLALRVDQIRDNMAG
Experimental: (§3) Example A: Activity Detection of JAK Kinase Small Molecule Inhibitors
(§4) Kinase reaction buffer was prepared with the following components: 50 mM HEPES, pH 7.5, 1 mM EGTA, 10 mM MgCl2, 2 mM DTT, 0.01% Tween20.
(§5) Detection buffer was prepared by diluting 10× detection buffer to IX with deionized water in a ratio of 9:1.
(§6) JAK kinase was diluted with kinase reaction buffer to 4× final concentration (JAK1: 40 nM, JAK2: 0.5 nM).
(§7) ULight™-JAK-1 (Tyr1023) substrate was diluted with kinase reaction buffer to 200 nM (final concentration: 50 nM).
(§8) ATP was diluted with kinase reaction buffer to 4× final concentration (JAK1: 160 μM, JAK2: 40 μM).
(§9) Compound to be tested was dissolved with DMSO to obtain a 10 mM storage solution, which was diluted to desired concentrations by a 3-fold gradient; for each compound 10 concentration points were set, and the final concentration of the compound to be tested ranges from 10 μM to 0.5 nM.
(§10) EDTA was dissolved with 1× detection buffer to 40 mM (EDTA final concentration: 10 mM).
(§11) Eu-labeled detection antibody (anti-phosphotyrosine (PT66)) was diluted with 1× detection buffer to 8 nM (final antibody concentration: 2 nM).
(§12) (1) To a 384-well plate, 2.5 μL 4× kinase solution and 2.5 μL 4× test compound solution with different concentrations that have been diluted were added successively, each concentration was set in duplicate, and an enzyme solution blank control and a negative control (DMSO group) were also set.
(§13) (2) The 384-well plate was shaken to mix enzyme and compound well, and then centrifuged at 1000 rpm for 1 minute, and incubated at room temperature for 60 minutes.
(§14) (3) 2.5 μL 4× substrate solution was added to the 384-well plate and centrifuged at 1000 rpm for 1 minute.
(§15) (4) 2.5 μL 4× ATP solution was added to the 384-well plate and centrifuged at 1000 rpm for 1 minute, and then enzyme reaction was initiated.
(§16) (5) For JAK1 the reaction was carried out at room temperature for 2 hours, and for JAK2 the reaction was carried out at room temperature for 1 hour.
For the JAK2 reaction, the final concentrations of component are as follows: JAK2: 0.125 nM, substrate: 50 nM, ATP: 10 μM; and the final concentration of the tested compound ranges from 10 μM to 0.5 nM.
(§17) (7) After the enzyme reaction was completed, 5 μL 4× enzyme reaction termination solution was added to each well of the 384-well plate, and then centrifuged at 1000 rpm for 1 minute and incubated at room temperature for 5 minutes.
(§18) (8) 5 μL 4× detection antibody solution (the final concentration of detection antibody is 2 nM) was added to each well of the 384-well plate, and then centrifuged at 1000 rpm for 1 minute and incubated at room temperature for 1 hour.
(§19) (9) At the antibody incubation was completed, signal value of each well was measured on a Envision plate reader.
(§20) (1) The percentage inhibition rate corresponding to each concentration of the tested compound was calculated on the basis that the blank control of enzyme solution corresponds to 100% and the negative control (DMSO group) corresponds to 0%.
(§21) (2) A nonlinear regression analysis of the logarithm of the concentration of the detected compound and the corresponding percentage inhibition rate was performed in GraphPad Prism software to obtain the half-inhibiting concentration (IC50) of the tested compound.

JAK1 = JAK1 (Homo sapiens, UniProt P23458); assay: JAK1 kinase inhibition assay (ULight-JAK-1 substrate, Eu-labeled anti-phosphotyrosine antibody); format: biochemical; settings: JAK1 10 nM, substrate 50 nM, ATP 40 μM, 2 hours at room temperature
Chain of JAK1 (P23458 whole entry, species assumed): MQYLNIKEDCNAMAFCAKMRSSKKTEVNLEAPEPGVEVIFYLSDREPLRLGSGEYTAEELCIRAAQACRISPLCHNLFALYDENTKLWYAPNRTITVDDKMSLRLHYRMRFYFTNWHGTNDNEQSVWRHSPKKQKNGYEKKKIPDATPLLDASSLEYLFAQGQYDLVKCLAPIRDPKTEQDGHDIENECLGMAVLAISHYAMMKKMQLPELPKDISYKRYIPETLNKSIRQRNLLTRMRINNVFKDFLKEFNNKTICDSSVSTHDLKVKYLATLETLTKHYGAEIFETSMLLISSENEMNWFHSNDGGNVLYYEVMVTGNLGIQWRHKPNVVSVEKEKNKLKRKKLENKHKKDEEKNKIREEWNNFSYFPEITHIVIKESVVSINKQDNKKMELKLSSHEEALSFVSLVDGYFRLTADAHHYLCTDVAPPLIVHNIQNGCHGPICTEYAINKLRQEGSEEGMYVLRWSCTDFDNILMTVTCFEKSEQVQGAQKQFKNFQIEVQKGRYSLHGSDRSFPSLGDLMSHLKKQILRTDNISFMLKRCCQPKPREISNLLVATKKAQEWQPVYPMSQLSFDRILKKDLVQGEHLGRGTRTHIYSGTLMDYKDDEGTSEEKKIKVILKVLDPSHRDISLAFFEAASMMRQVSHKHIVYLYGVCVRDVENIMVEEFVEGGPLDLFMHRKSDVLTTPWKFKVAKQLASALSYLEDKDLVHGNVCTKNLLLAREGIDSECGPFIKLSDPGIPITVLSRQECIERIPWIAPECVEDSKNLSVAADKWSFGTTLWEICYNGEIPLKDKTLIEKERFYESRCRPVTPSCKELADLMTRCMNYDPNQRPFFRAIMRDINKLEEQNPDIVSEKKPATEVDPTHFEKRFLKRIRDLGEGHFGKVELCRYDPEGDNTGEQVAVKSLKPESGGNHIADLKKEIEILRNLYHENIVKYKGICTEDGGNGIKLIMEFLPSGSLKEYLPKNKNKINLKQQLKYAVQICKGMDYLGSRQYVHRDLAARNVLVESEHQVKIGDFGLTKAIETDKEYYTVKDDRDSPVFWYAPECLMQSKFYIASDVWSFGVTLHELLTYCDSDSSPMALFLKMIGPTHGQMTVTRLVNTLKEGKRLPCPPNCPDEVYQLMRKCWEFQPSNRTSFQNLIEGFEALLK
Experimental: as §3, §4, §5, §6, §7, §8, §9, §10, §11, §12, §13, §14, §15, §16
(6) For the JAK1 reaction, the final concentrations of components are as follows: JAK1: 10 nM, substrate: 50 nM, ATP: 40 μM; and the final concentration of the tested compounds ranges from 10μ M to 0.5 nM.
as §17, §18, §19, §20, §21

[2] = Fecal excretion (cumulative recovery) in rats after single gavage; format: in vivo; settings: feces, SD rats
Experimental: as §1, §2

[3] = Pharmacokinetics in rats in vivo: A13 in plasma and colon tissue after equimolar A3 or A13; settings: SD rats, A3 30 mg/kg vs A13 15 mg/kg (equal molar) by gavage, FIG. 1
Experimental: Compounds A3 and A13 were administered once to SD rats by gavage in an equal molar amount relative to the body weight of rats. The concentration of the medicaments and metabolites thereof in plasma and colon tissues were collected and measured at different time points, and the pharmacokinetic parameters of the compounds were calculated to compare the pharmacokinetic characteristics of the prodrug and the active metabolite in SD rats in vivo.
Rats were grouped in groups of 27, and all SD rats were fasted overnight (12 hours or more) the day before the experiment. On the day of the experiment, after weighing the body weight, the compounds A3 (30 mg/kg) and A13 (15 mg/kg) were administered once by gavage respectively. SD rats were able to resume eating after 4 hours of administration and were able to drink freely during the experiment. Plasma and colonic tissue were collected at 0.5, 1, 2, 4, 6, 8, 12, 24 and 48 hours after the administration to detect the concentration of A13 in the plasma and colon tissue homogenate liquid.

[4] = administration group Compound A1 50 mg/kg by gavage
[5] = administration group Compound A2 50 mg/kg by gavage
[6] = rat, po, administration group Compound B6 50 mg/kg by gavage, read-out: Cmax
[7] = rat, po, administration group Compound B6 50 mg/kg by gavage, read-out: Tmax
[8] = administration group Compound B6 50 mg/kg by gavage
[9] = administration group Compound B3 33 mg/kg (equimolar with B6) by gavage
[10] = administration group Compound A3 40 mg/kg by gavage

SMILES	presence of the prodrug in plasma (in words) [1]	IC50 (JAK2) [nM]	IC50 (JAK1) [nM]	Cumulative recovery rate at 24 h (%) [2, 4] [%]	Cumulative recovery rate at 24 h (%) [2, 5] [%]	Cmax [1, 6] [ng/mL]	Tmax [1, 7] [h]	Cumulative recovery rate at 24 h (%) [2, 8] [%]	AUC0-t [1, 10] [ng·h/g]	Cumulative recovery rate at 24 h (%) [2, 10] [%]	other results
C[C@@H](OC(=O)CCc1ccccc1/N=N/c1ccc(O)c(C(=O)O)c1)c1nc2cnc3[nH]ccc3c2n1N1CCC(CC#N)CC1 [Compound A1, (R,E)-5-((2-(3-(1-(1-(4-(cyanomethyl)piperidin-1-yl)-1,6-dihydroimidazo[4,5-d]pyrrolo[2,3-b]pyridin-2-yl)ethoxy)-3-oxopropyl)phenyl)diazenyl)-2-hydroxybenzoic acid]	absent or rarely present in plasma	536	133	83	–	–	–	–	–	–	Cmax (ng · mL^−1) [1, 4]: BLOQ
C[C@@H](OC(=O)OCc1ccc(/N=N/c2ccc(O)c(C(=O)O)c2)cc1)c1nc2cnc3[nH]ccc3c2n1N1CCC(CC#N)CC1 [Compound A2, (R,E)-5-((4-((((1-(1-(4-cyanomethylpiperidin-1-yl)-1,6-dihydroimidazo[4,5-d]pyrrolo[2,3-b]pyridin-2-yl)ethoxy)carbonyl)oxy)methyl)phenyl)diazenyl)-2-hydroxybenzoic acid]	absent or rarely present in plasma	27	5.94	–	7.2	–	–	–	–	–	Cmax (ng · mL^−1) [1, 5]: BLOQ
N#CC[C@H]1CC[C@H](n2c(/N=N/c3ccc(O)c(C(=O)O)c3)nc3cnc4[nH]ccc4c32)CC1 [Compound B6, 5-((E)-(1-((1R,4R)-4-(cyanomethyl)cyclohexyl)-1,6-dihydroimidazo[4,5-d]pyrrolo[2,3-b]pyridin-2-yl)diazenyl)-2-hydroxybenzoic acid]	absent or rarely present in plasma	0.81	0.45	–	–	0.7	4	5.1	–	–	blood system absorption (AUC0-t) of the active metabolite B3 after prodrug B6 compared with direct oral equimolar B3 ([1]; B6 50 mg/kg vs B3 33 mg/kg by gavage): significant reduction
N#CC[C@H]1CC[C@H](n2c(N)nc3cnc4[nH]ccc4c32)CC1 [Compound B3, 2-((1R,4R)-4-(2-aminoimidazo[4,5-d]pyrrolo[2,3-b]pyridin-1(6H)-ethyl)cyclohexyl)acetonitrile]	–	0.37	0.04	–	–	4.8	12	82.1	–	–	AUC0-t [1, 9]: 324 ng·h/g; AUC0-t [1, 8]: 69.1 ng·h/g; Cmax ([1]; rat, po, administration group Compound B3 33 mg/kg (equimolar with B6) by gavage, read-out: Cmax): 126 ng/mL; Tmax ([1]; rat, po, administration group Compound B3 33 mg/kg (equimolar with B6) by gavage, read-out: Tmax): 1.2 h; Cumulative recovery rate at 24 h (%) [2, 9]: 71.2%
C[C@@H](O)c1nc2cnc3[nH]ccc3c2n1N1CCC(CC#N)CC1 [Compound A13, (R)-2-(1-(2-(1-(hydroxyethyl))imidazo[4,5-d]pyrrolo[2,3-b]pyridin-1(6H)-yl)piperidin-4-yl)acetonitrile]	–	–	–	11.6	24.8	–	–	–	836	34.3	Cmax [1, 4]: 9.1 ng/mL; Tmax [1, 4]: 12 h; AUC0-t [1, 5]: 972 ng·h/g; Cmax [1, 5]: 80.6 ng/mL; Tmax [1, 5]: 4 h; Cmax [1, 10]: 69.9 ng/mL; Tmax [1, 10]: 12 h
C[C@@H](OC(=O)C(C)(C)Oc1ccccc1/N=N/c1ccc(O)c(C(=O)O)c1)c1nc2cnc3[nH]ccc3c2n1N1CCC(CC#N)CC1 [Compound A3, (R,E)-5-((2-((1-(1-(1-(4-cyanomethylpiperidin-1-yl)-1,6-dihydroimidazo[4,5-d]pyrrolo[2,3-b]pyridin-2-yl)ethoxy)-2-methyl-1-oxopropan-2-yl)oxy)phenyl)diazenyl)-2-hydroxybenzoic acid]	absent or rarely present in plasma	102	7.04	–	–	–	–	–	8.92	0.78	Cmax ([1]; rat, po, administration group Compound A3 40 mg/kg by gavage, read-out: Cmax): 2.08 ng/mL; Tmax ([1]; rat, po, administration group Compound A3 40 mg/kg by gavage, read-out: Tmax): 4 h; amount (AUC) of active metabolite A13 in the colonic tissue after prodrug A3 compared with compound A13 ([3]; colon tissue 0.5-48 hours): more in the colonic tissue; amount (AUC) of active metabolite A13 in the blood after prodrug A3 compared with compound A13 ([3]; plasma 0.5-48 hours): less in the blood
